Several values for one entry are separate records, joined by “and”; a condition that tells them apart may be missing. Identical values can stand only once.
Test: Pesticide sorption from water by K- and Ca-SWy-2 smectite clay, batch equilibration method
Assay type: physicochemical
Details: for change in sorption by sorbents derived from Ca-SWy-2 as fK increased from zero to 0.71: Ca-SWy-2 exchanged with KCl; for sorption by K-SWy-2 relative to sorption by Ca-SWy-2: relative aqueous concentration of 0.1; for pesticide distribution coefficient for sorption by homoionic K-SWy-2: relative concentration of 0.1 (aqueous equilibrium concentration/aqueous solubility), 0.25 M KCl solution
Experimental: Pesticide sorption from water solution by K— and Ca—SWy-2 mixed with different ratios of aqueous KCl to CaCl2 (kept at a fixed ionic strength of 0.25 M) were measured using a batch equilibration method. A series of initial pesticide concentrations were prepared in the following electrolyte solutions: 0.25 M KCl, 0.24 M KCl/0.003 M CaCl2; 0.20 M KCl/0.016 M CaCl2; 0.15 M KCl/0.033 M CaCl2; 0.10 M KCl/0.05 M CaCl2; 0.05 M KCl/0.067 M CaCl2; 0.01 M KCl/0.08 M CaCl2; and 0.083 M CaCl2. Clays were weighed into glass centrifuge tubes, solute solutions over a range of initial pesticide concentrations were added, and the tubes were closed with Teflon-lined screw caps. The tubes were then shaken reciprocally at 40 rpm for 24 h at room temperature (23±2° C.), followed by centrifugation at 2600 g for 30 min. Previous studies have shown that equilibrium was reached within this period of time (Sheng, G., et al., J. Agri. Food Chem. 49, 2899-2907 (2001); and Sheng, G., et al., Clays Clay Miner. 50, 25-34 (2002)). Supernatants were sampled and subject to analysis for pesticide concentrations using a Perkin-Elmer High Performance Liquid Chromatography (HPLC) system consisting of a Binary 250 LC pump, a Series 200 autosampler and a Series 200 UV-Visible detector. The optimal wavelength was set at 238 nm for dichlobenil, 250 nm for monuron and 248 nm for biphenyl. An Alltech platinum extended polar selectivity C18 column (15 cm by 4.6 mm i.d.) was used for dichlobenil and monuron, and an Alltech adsobosphere C18 column (25 cm by 4.6 mm i.d.) was used for biphenyl. The mobile phase composition was a mixture of methanol and water, and was optimized for each pesticide. Controls consisted of identical pesticide solutions in the corresponding electrolytes, but with no clay present. No changes in solute concentrations were detected in the tubes devoid of clay within the experimental period; therefore, solute mass lost in the supernatant from clay slurries was assumed to be sorbed by clay. The amount of pesticide sorbed was calculated from the difference between the initial and equilibrium solute concentration in aqueous solution.
The actual population of exchangeable K^+ and Ca^2+ associated with the clay was measured in a separate experiment using the BaCl2 extraction method (Rhoades, J. D., Method of Soil Analysis part 2: Chemical and Microbiological Properties; 2nd ed., American Society of Agronomy: Madison, Wis. 149-158 (1982)). The same amounts of clays and electrolyte solutions used in the sorption studies were added into glass centrifuge tubes, the tubes were shaken for 24 h at room temperature then centrifuged at 2600 g for 30 min. Aqueous supernatants were removed, diluted and analyzed by a Perkin-Elmer 3110 atomic absorption spectrophotometer (AAS). The mass of K^+ and Ca^2+ remaining in the residual supernatant was accounted for by assuming their concentrations to be the same as that measured in the bulk supernatant; residual supernatant that could not be removed was determined gravimetrically. The clay pellets were extracted three times using 0.1 M BaCl2, then washed three times with Milli-Q water. The supernatants from the water washing were combined with the supernatants from the BaCl2 extraction step, diluted and analyzed by AAS. The K^+ and Ca^2+ concentrations were measured using the external standards prepared with the matching matrix background of extraction reagents.
We compared sorption coefficients for clays derived from homoionic Ca—SWy-2 vs. those derived from homoionic K—SWy-2 after the homoionic clays had been treated with different amounts of CaCl2/KCl aqueous solutions. […] Replacement of K^+ from K—SWy-2 by Ca^2+ (from fK=1 to 0.66) manifested gradually diminishing sorption of dichlobenil to ˜40% of that by homoionic K—SWy-2.

[1] = relative aqueous concentration 0.1

SMILES	change in sorption by sorbents derived from Ca-SWy-2 as fK increased from zero to 0.71 [1]	sorption relative to that by homoionic K-SWy-2 after replacement of K+ by Ca2+ (K-SWy-2 derived clay, fK from 1 to 0.66, relative concentration 0.1) [%]	sorption by clay derived from K-SWy-2 (fK=0.66) relative to clay derived from Ca-SWy-2 (fK=0.71) (comparable fK, different starting clay)	sorption by K-SWy-2 relative to sorption by Ca-SWy-2	pesticide distribution coefficient for sorption by homoionic K-SWy-2 [L/kg]	sorption across variation of K+ fractions on minerals from zero to one (relative concentration 0.1, FIG. 4)	sorption enhancement by Ca-SWy-2 derived sorbents at fK as high as 0.71 (Ca2+ replaced by K+, sorption isotherms, FIG. 2)	change in sorption when K-SWy-2 underwent exchange with CaCl2, fK from 1 to 0.81 [1]
N#Cc1c(Cl)cccc1Cl [Dichlobenil, 2,6-dichlorobenzonitrile]	increased by approximately four times	~40	~10 times and 8 times	approximately 75 times higher	580			
c1ccc(-c2ccccc2)cc1 [Biphenyl, 1,1′-biphenyl]					6.4	remained nearly constant		
CN(C)C(=O)Nc1ccc(Cl)cc1 [Monuron, N′-(4-chlorophenyl)-N,N-dimethylurea]	No apparent enhancement			~4 times higher	27		ca. 205	reduced by about half

From patent US20060157667A1, “Method and compositions for controlling release of organic compositions” (Board of Trustees of Michigan State University, priority 2005, published 2006)
